One assay concerns the target T1, IL-17A/A (Homo sapiens, UniProt Q16552).
T1 construct: purchased Genscript Z03228
T1 sequence (Q16552 24-155): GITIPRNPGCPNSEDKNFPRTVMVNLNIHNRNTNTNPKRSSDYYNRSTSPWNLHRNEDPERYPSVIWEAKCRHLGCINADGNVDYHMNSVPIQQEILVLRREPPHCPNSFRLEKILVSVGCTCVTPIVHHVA
Briefly: IL-17A/A HEK-Blue cell assay (SEAP reporter). It counts as cell-based. To be noted: HEK-Blue IL-17A reporter cells, IL17A/A 5 ng/mL, 20 hours, SEAP read at A630; read-out: HEK-Blue IL17AA (IC50 for IL-17A/A inhibition).

The target in a further assay is T2, IL-17A/F (Homo sapiens, UniProt Q16552+Q96PD4).
T2 construct: purchased R&D Systems
T2 sequence (Q16552 24-155): T1 sequence (Q16552 24-155)
T2 sequence (Q96PD4 31-163): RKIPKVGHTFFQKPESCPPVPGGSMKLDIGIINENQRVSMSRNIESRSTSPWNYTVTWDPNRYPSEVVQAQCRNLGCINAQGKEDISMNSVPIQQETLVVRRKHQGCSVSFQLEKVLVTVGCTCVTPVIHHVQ
The assay is described as follows: IL-17A/F HEK-Blue cell assay (SEAP reporter). It counts as cell-based. The note with it: HEK-Blue IL-17A reporter cells, IL17A/F 5 ng/mL, 20 hours, SEAP read at A630; read-out: HEK-Blue IL17AF (IC50 for IL-17A/F inhibition).

Regarding `CCn1nccc1C(=O)N[C@H](c1cn2nc(C[C@H]3C[C@@H](C(F)(F)F)CNC3=O)c(N(C)CCOC)nc2n1)C1CCC(F)(F)CC1` [Compound 237, N—((S)-(4,4-difluorocyclohexyl)(3-((2-methoxyethyl)(methyl)amino)-2-(((3R,5R)-2-oxo-5-(trifluoromethyl)piperidin-3-yl)methyl)imidazo[1,2-b][1,2,4]triazin-6-yl)methyl)-1-ethyl-1H-pyrazole-5-carboxamide], the IC50 on IL-17A/A was < 0.1 µM; on IL-17A/F it was 0.1 to 1 µM.
Regarding `CCn1nccc1C(=O)N[C@H](c1cn2nc(C[C@H]3C[C@@H](C(F)(F)F)CNC3=O)c(N3CCN(C(=O)OC(C)(C)C)[C@@H](C)C3)nc2n1)C1CCC(F)(F)CC1` [Compound 238, tert-butyl (S)-4-(6-((S)-(4,4-difluorocyclohexyl)(1-ethyl-1H-pyrazole-5-carboxamido)methyl)-2-(((3R,5R)-2-oxo-5-(trifluoromethyl)piperidin-3-yl)methyl)imidazo[1,2-b][1,2,4]triazin-3-yl)-2-methylpiperazine-1-carboxylate], the IC50 on IL-17A/A and at IL-17A/F was 0.1 to 1 µM throughout.
Regarding `CCn1nccc1C(=O)N[C@H](c1cn2nc(C[C@H]3C[C@@H](C(F)(F)F)CNC3=O)c(N3CCN[C@@H](C)C3)nc2n1)C1CCC(F)(F)CC1` [Compound 239, N—((S)-(4,4-difluorocyclohexyl)(3-((S)-3-methylpiperazin-1-yl)-2-(((3R,5R)-2-oxo-5-(trifluoromethyl)piperidin-3-yl)methyl)imidazo[1,2-b][1,2,4]triazin-6-yl)methyl)-1-ethyl-1H-pyrazole-5-carboxamide], the IC50 on IL-17A/A was 0.1 to 1 µM; at IL-17A/F it was > 1 µM.
For `CCn1nccc1C(=O)N[C@H](c1cn2nc(C[C@H]3C[C@@H](C(F)(F)F)CNC3=O)c(C3CCOC4(C3)CN(C(=O)OC(C)(C)C)C4)nc2n1)C1CCC(F)(F)CC1` (stereo partly drawn) [Compound 240, tert-butyl 8-(6-((S)-(4,4-difluorocyclohexyl)(1-ethyl-1H-pyrazole-5-carboxamido)methyl)-2-(((3R,5R)-2-oxo-5-(trifluoromethyl)piperidin-3-yl)methyl)imidazo[1,2-b][1,2,4]triazin-3-yl)-5-oxa-2-azaspiro[3.5]nonane-2-carboxylate], the IC50 at IL-17A/A and on IL-17A/F was 0.1 to 1 µM throughout.
With `CCn1nccc1C(=O)N[C@H](c1cn2nc(C[C@H]3C[C@@H](C(F)(F)F)CNC3=O)c(N3C[C@@H](C)O[C@H](C)C3)nc2n1)C1CCC(F)(F)CC1` [Compound 241, N—((S)-(4,4-difluorocyclohexyl)(3-((2R,6R)-2,6-dimethylmorpholino)-2-(((3R,5R)-2-oxo-5-(trifluoromethyl)piperidin-3-yl)methyl)imidazo[1,2-b][1,2,4]triazin-6-yl)methyl)-1-ethyl-1H-pyrazole-5-carboxamide], the IC50 on IL-17A/A and at IL-17A/F was < 0.1 µM each time.
As for `CCn1nccc1C(=O)N[C@H](c1cn2nc(C[C@H]3C[C@@H](C(F)(F)F)CNC3=O)c(N3CCN(C(C)(C)C)CC3)nc2n1)C1CCC(F)(F)CC1` [Compound 242, N—((S)-(3-(4-(tert-butyl)piperazin-1-yl)-2-(((3R,5R)-2-oxo-5-(trifluoromethyl)piperidin-3-yl)methyl)imidazo[1,2-b][1,2,4]triazin-6-yl)(4,4-difluorocyclohexyl)methyl)-1-ethyl-1H-pyrazole-5-carboxamide], the values for the IC50 at IL-17A/A and on IL-17A/F were < 0.1 µM and 0.1 to 1 µM, respectively.
For the compound `O=C(N[C@H](c1cn2nc(C[C@H]3C[C@@H](C(F)(F)F)CNC3=O)c(C3CCS(=O)(=O)CC3)nc2n1)C1CCC(F)(F)CC1)c1nonc1C1CC1` [Compound 243, 4-cyclopropyl-N—((S)-(4,4-difluorocyclohexyl)(3-(1,1-dioxidotetrahydro-2H-thiopyran-4-yl)-2-(((3R,5R)-2-oxo-5-(trifluoromethyl)piperidin-3-yl)methyl)imidazo[1,2-b][1,2,4]triazin-6-yl)methyl)-1,2,5-oxadiazole-3-carboxamide], the IC50 is < 0.1 µM at IL-17A/A and > 1 µM on IL-17A/F.
The like results for `CCn1nccc1C(=O)N[C@H](c1cn2nc(C[C@H]3C[C@@H](C(F)(F)F)CNC3=O)c(N3CCN(CC4CC4)CC3)nc2n1)C1CCC(F)(F)CC1` [Compound 244, N—((S)-(3-(4-(cyclopropylmethyl)piperazin-1-yl)-2-(((3R,5R)-2-oxo-5-(trifluoromethyl)piperidin-3-yl)methyl)imidazo[1,2-b][1,2,4]triazin-6-yl)(4,4-difluorocyclohexyl)methyl)-1-ethyl-1H-pyrazole-5-carboxamide] were, in that order, < 0.1 µM and 0.1 to 1 µM.
Turning to `CCn1nccc1C(=O)N[C@H](c1cn2nc(C[C@H]3C[C@@H](C(F)(F)F)CNC3=O)c(N3CCCOCC3)nc2n1)C1CCC(F)(F)CC1` [Compound 245, N—((S)-(3-(1,4-oxazepan-4-yl)-2-(((3R,5R)-2-oxo-5-(trifluoromethyl)piperidin-3-yl)methyl)imidazo[1,2-b][1,2,4]triazin-6-yl)(4,4-difluorocyclohexyl)methyl)-1-ethyl-1H-pyrazole-5-carboxamide], the IC50 was < 0.1 µM at IL-17A/A and 0.1 to 1 µM on IL-17A/F.
For `Cc1nccnc1C(=O)N[C@H](c1cn2nc(C[C@H]3C[C@@H](C(F)(F)F)CNC3=O)c(C3CCOCC3)nc2n1)C1CCC(F)(F)CC1` [Compound 246, N—((S)-(4,4-difluorocyclohexyl)(2-(((3R,5R)-2-oxo-5-(trifluoromethyl)piperidin-3-yl)methyl)-3-(tetrahydro-2H-pyran-4-yl)imidazo[1,2-b][1,2,4]triazin-6-yl)methyl)-3-methylpyrazine-2-carboxamide], in that order: 0.1 to 1 µM and > 1 µM.
Regarding `CCn1nccc1C(=O)N[C@H](c1cn2nc(C[C@H]3C[C@@H](C(F)(F)F)CNC3=O)c(N3C[C@@H](C)O[C@@H](C)C3)nc2n1)C1CCC(F)(F)CC1` [Compound 247, N—((S)-(4,4-difluorocyclohexyl)(3-((2R,6S)-2,6-dimethylmorpholino)-2-(((3R,5R)-2-oxo-5-(trifluoromethyl)piperidin-3-yl)methyl)imidazo[1,2-b][1,2,4]triazin-6-yl)methyl)-1-ethyl-1H-pyrazole-5-carboxamide], the IC50 at IL-17A/A is < 0.1 µM; at IL-17A/F, 0.1 to 1 µM.
As for `CCn1ncnc1C(=O)N[C@H](c1cn2nc(C[C@H]3C[C@@H](C(F)(F)F)CNC3=O)c(C3CCS(=O)(=O)CC3)nc2n1)C1CCC(F)(F)CC1` [Compound 248, N—((S)-(4,4-difluorocyclohexyl)(3-(1,1-dioxidotetrahydro-2H-thiopyran-4-yl)-2-(((3R,5R)-2-oxo-5-(trifluoromethyl)piperidin-3-yl)methyl)imidazo[1,2-b][1,2,4]triazin-6-yl)methyl)-1-ethyl-1H-1,2,4-triazole-5-carboxamide], the IC50 on IL-17A/A was < 0.1 µM; at IL-17A/F, > 1 µM.
The like results for `O=C(N[C@H](c1cn2nc(C[C@H]3C[C@@H](C(F)(F)F)CNC3=O)c([C@H]3CCCOC3)nc2n1)[C@@H]1CCCC(F)(F)C1)c1nonc1C1CC1` [Compound 249] were, in that order, < 0.1 µM and 0.1 to 1 µM.
For `CCn1nccc1C(=O)N[C@H](c1cn2nc(C[C@H]3C[C@@H](C(F)(F)F)CNC3=O)c(C34CCOC(C3)C4)nc2n1)C1CCC(F)(F)CC1` [Compound 250, N—((S)-(3-(2-oxabicyclo[3.1.1]heptan-5-yl)-2-(((3R,5R)-2-oxo-5-(trifluoromethyl)piperidin-3-yl)methyl)imidazo[1,2-b][1,2,4]triazin-6-yl)(4,4-difluorocyclohexyl)methyl)-1-ethyl-1H-pyrazole-5-carboxamide], the figures for the IC50 at IL-17A/A and on IL-17A/F were < 0.1 µM and 0.1 to 1 µM, respectively.
`CCn1nccc1C(=O)N[C@H](c1cn2nc(C[C@H]3C[C@@H](C(F)(F)F)CNC3=O)c(C34COCC(C3)C4)nc2n1)C1CCC(F)(F)CC1` [Compound 253, N—((S)-(3-(3-oxabicyclo[3.1.1]heptan-1-yl)-2-(((3R,5R)-2-oxo-5-(trifluoromethyl)piperidin-3-yl)methyl)imidazo[1,2-b][1,2,4]triazin-6-yl)(4,4-difluorocyclohexyl)methyl)-1-ethyl-1H-pyrazole-5-carboxamide]: the IC50 on IL-17A/A is < 0.1 µM; on IL-17A/F it was 0.1 to 1 µM.
Take `CCn1nccc1C(=O)N[C@H](c1cn2nc(C[C@H]3C[C@@H](C(F)(F)F)CNC3=O)c(C34CCCC(C3)OC4)nc2n1)C1CCC(F)(F)CC1` (stereo partly drawn) [Compound 254, N-((1S)-(3-(6-oxabicyclo[3.2.1]octan-1-yl)-2-(((3R,5R)-2-oxo-5-(trifluoromethyl)piperidin-3-yl)methyl)imidazo[1,2-b][1,2,4]triazin-6-yl)(4,4-difluorocyclohexyl)methyl)-1-ethyl-1H-pyrazole-5-carboxamide]: the figures for the IC50 at IL-17A/A and at IL-17A/F were < 0.1 µM and 0.1 to 1 µM, respectively.
Consider `CCn1nccc1C(=O)N[C@H](c1cn2nc(C[C@H]3C[C@@H](C(F)(F)F)CNC3=O)c(C34COC(C3)C4)nc2n1)C1CCC(F)(F)CC1` [Compound 255, N—((S)-(3-(2-oxabicyclo[2.1.1]hexan-4-yl)-2-(((3R,5R)-2-oxo-5-(trifluoromethyl)piperidin-3-yl)methyl)imidazo[1,2-b][1,2,4]triazin-6-yl)(4,4-difluorocyclohexyl)methyl)-1-ethyl-1H-pyrazole-5-carboxamide], for which the IC50 was < 0.1 µM on IL-17A/A and 0.1 to 1 µM on IL-17A/F.

The values above are taken from patent publication US20260226068A1, “IMIDAZOTRIAZINE IL-17A MODULATORS AND USES THEREOF” (DICE ALPHA, INC., priority 2023, published 2026).
